Measurements published in ChEMBL document CHEMBL5149973, “Agaricus bisporus-Derived Glucosamine Hydrochloride Facilitates Skeletal Injury Repair through Bmp Signaling in Zebrafish Osteoporosis Model” (J Nat Prod, 2021).
The source made the active and inactive calls.

Assays:
[1] = Induction of Zebrafish embryo skeletal development assessed as mortality rate of embryo at 0.01 % measured after 72 hrs post fertilization by Alcian blue staining based assay; format: functional, Danio rerio
[2] = Induction of Zebrafish embryo skeletal development assessed as mortality rate of embryo at 0.03 % measured after 72 hrs post fertilization by Alcian blue staining based assay; format: functional, Danio rerio
[3] = Induction of Zebrafish embryo skeletal development assessed as mortality rate of embryo at 0.05 % measured after 72 hrs post fertilization by Alcian blue staining based assay; format: functional, Danio rerio
[4] = Induction of Zebrafish embryo skeletal development assessed as mortality rate of embryo at 0.3 % measured after 72 hrs post fertilization by Alcian blue staining based assay; format: functional, Danio rerio
[5] = Induction of Zebrafish embryo skeletal development assessed as mortality rate of embryo at 0.5 % measured after 72 hrs post fertilization by Alcian blue staining based assay; format: functional, Danio rerio
[6] = Induction of Zebrafish Larva cartilage development assessed as increase in H3 phenotype ratio at 0.05 % measured after 5 days post fertilization by Alcian blue staining based assay; format: functional, Danio rerio; details: time 5 day
Danio rerio [7] = species on record: Danio rerio; assay: Induction of Zebrafish embryo skeletal development assessed as upregulation of col10a1a gene expression in branchiostegal at 0.01 to 0.3 % measured after 72 hrs post fertilization by […] analysis; format: functional; details: dose 0.01-0.3 %
Danio rerio [8] = species on record: Danio rerio; assay: Induction of Zebrafish embryo skeletal development assessed as upregulation of col10a1a gene expression in palatoquadrate at 0.01 to 0.3 % measured after 72 hrs post fertilization by […] analysis; format: functional, tissue-based; details: dose 0.01-0.3 %
Danio rerio [9] = species on record: Danio rerio; assay: Induction of Zebrafish embryo skeletal development assessed as upregulation of col10a1a gene expression in head bone at 0.01 to 0.3 % measured after 72 hrs post fertilization by […] analysis; format: functional, tissue-based; details: dose 0.01-0.3 %
Osteoblast [10] = assay: Induction of osteoblast differentiation in Zebrafish embryo assessed as upregulation of runx2b gene expression in operculum measured at 0.75 to 72 hrs post fertilization at 0.05 to 0.3 % by […] analysis; format: functional, tissue-based; details: Danio rerio, dose 0.05-0.3 %, time 0.75-72 hrs
Osteoblast [11] = assay: Induction of osteoblast differentiation in Zebrafish embryo assessed as upregulation of sox9a gene expression in head measured at 0.75 to 72 hrs post fertilization at 0.05 to 0.3 % by […] analysis; format: functional; details: Danio rerio, dose 0.05-0.3 %, time 0.75-72 hrs
Osteoblast [12] = assay: Induction of osteoblast differentiation in Zebrafish embryo assessed as upregulation of sox9b gene expression in head measured at 0.75 to 72 hrs post fertilization at 0.05 to 0.3 % by ELISA analysis; format: functional, tissue-based; details: Danio rerio, dose 0.05-0.3 %, time 0.75-72 hrs
Osteoblast [13] = assay: Induction of osteoblast differentiation in transgenic osx mCherry Zebrafish embryo assessed as increase in sp7 mRNA expression in distal fin rays at 0.1 % measured after 6 days by ISH analysis; format: functional; details: Danio rerio, time 6.0 day
Danio rerio [14] = species on record: Danio rerio; assay: Anti-osteoporosis activity in FAC-induced skeletal injury Zebrafish larvae assessed as rescue of bone damage measured for 10 day post fertilization by Alizarin red staining based assay; format: functional, organism-based; details: Larva
Danio rerio [15] = species on record: Danio rerio; assay: Anti-osteoporosis activity in FAC-induced skeletal injury Zebrafish larvae assessed as increase in Sox9a mRNA expression level measured for 10 day post fertilization by semiquantitative-PCR analysis; format: functional, organism-based; details: Larva
Danio rerio [16] = species on record: Danio rerio; assay: Anti-osteoporosis activity in FAC-induced skeletal injury Zebrafish larvae assessed as increase in Sox9b mRNA expression level measured for 10 day post fertilization by semiquantitative-PCR analysis; format: functional, organism-based; details: Larva
Danio rerio [17] = species on record: Danio rerio; assay: Anti-osteoporosis activity in FAC-induced skeletal injury Zebrafish larvae assessed as increase in Col10a1a mRNA expression level measured for 10 day post fertilization by semiquantitative-PCR analysis; format: functional, organism-based; details: Larva
Danio rerio [18] = species on record: Danio rerio; assay: Anti-osteoporosis activity in FAC-induced skeletal injury Zebrafish assessed as rescue of skeletal density in spine at 0.1 % measured for 10 day post fertilization; format: functional, organism-based
Danio rerio [19] = species on record: Danio rerio; assay: Anti-osteoporosis activity in FAC-induced skeletal injury Zebrafish assessed as increase in cumulative bone optical density in caudal fins at 0.1 % measured for 10 day post fertilization; format: functional, organism-based
Danio rerio [20] = species on record: Danio rerio; assay: Anti-osteoporosis activity in FAC-induced skeletal injury Zebrafish assessed as increase in cumulative bone optical density in spine at 0.1 % measured for 10 day post fertilization; format: functional, organism-based
[21] = Induction of Zebrafish embryo skeletal development assessed as ventralized embryos at 0.3 % measured at 24 hrs post fertilization relative to control; format: functional, Danio rerio
Danio rerio [22] = species on record: Danio rerio; assay: Induction of Zebrafish embryo skeletal development assessed as increase in Bmp4 mRNA expression level in gastrula stage at 0.05 to 0.1 % measured at 24 hrs post fertilization by ISH analysis; format: functional, tissue-based; details: dose 0.05-0.1 %
Danio rerio [23] = species on record: Danio rerio; assay: Induction of Zebrafish embryo skeletal development assessed as increase in Bmp2b mRNA expression level expanded from ventral side to dorsal side at 0.1 to 0.3 % measured at 24 hrs post fertilization by ISH analysis; format: functional, tissue-based; details: dose 0.1-0.3 %
Danio rerio [24] = species on record: Danio rerio; assay: Induction of Zebrafish embryo skeletal development assessed as increase in Bmp2b mRNA expression level in bud region at 0.1 to 0.3 % measured at 24 hrs post fertilization by ISH analysis; format: functional, tissue-based; details: dose 0.1-0.3 %
Danio rerio [25] = species on record: Danio rerio; assay: Induction of Zebrafish embryo skeletal development assessed as increase in Bmp4 mRNA expression level in bud region at 0.1 to 0.3 % measured at 24 hrs post fertilization by ISH analysis; format: functional, tissue-based; details: dose 0.1-0.3 %
Danio rerio [26] = species on record: Danio rerio; assay: Induction of Zebrafish embryo skeletal development assessed as increase in Bmp2b mRNA expression level in head at 0.1 % measured at 72 hrs post fertilization; format: functional, tissue-based
Danio rerio [27] = species on record: Danio rerio; assay: Induction of Zebrafish embryo skeletal development assessed as increase in Smad1 gene expression level in coccygeal vertebra at 0.1 % measured for 0.75 to 24 hrs post fertilization by ISH analysis; format: functional, tissue-based; details: time 0.75-24 hrs
Danio rerio [28] = species on record: Danio rerio; assay: Induction of Zebrafish embryo skeletal development assessed as nuclear localization of p-Smad1 in head at 0.1 % measured at 24 to 72 hrs post fertilization by DAPI staining based analysis; format: functional, tissue-based; details: time 24-72 hrs
Danio rerio [29] = species on record: Danio rerio; assay: Induction of Zebrafish embryo skeletal development assessed as nuclear localization of p-Smad1 in tail at 0.1 % measured at 24 to 72 hrs post fertilization by DAPI staining based analysis; format: functional, tissue-based; details: time 24-72 hrs
Danio rerio [30] = species on record: Danio rerio; assay: Induction of Zebrafish embryo skeletal development assessed as increase in gfp expression level in tail at 0.05 to 0.3 % measured at 24 to 72 hrs post fertilization by DAPI staining based analysis; format: functional, tissue-based; details: dose 0.05-0.3 %, time 24-72 hrs
Danio rerio [31] = species on record: Danio rerio; assay: Induction of transgenic Zebrafish embryo skeletal development assessed as increase in GFP expression level in head at 0.05 to 0.3 % measured at 24 to 72 hrs post fertilization by DAPI staining based analysis; format: functional, tissue-based; details: dose 0.05-0.3 %, time 24-72 hrs
Danio rerio [32] = species on record: Danio rerio; assay: Suppression of Bmp signaling in Zebrafish embryo assessed as reduction in indistinctive tail tissue at 0.1 % measured at 26 hrs post fertilization in presence of dorsomorphin; format: functional; parameters: scale not given: the % may be the effect or the level left
Danio rerio [33] = species on record: Danio rerio; assay: Suppression of Bmp signaling in Zebrafish embryos assessed as decrease in sp7 gene expression level at 0.1 % measured at 26 hrs post fertilization by semiquantitative PCR analysis; format: functional, tissue-based; details: Embryo
Danio rerio [34] = species on record: Danio rerio; assay: Suppression of Bmp signaling in Zebrafish embryos assessed as decrease in Sox9b gene expression level at 0.1 % measured at 26 hrs post fertilization by semiquantitative PCR analysis; format: functional, tissue-based; details: Embryo

Measured: Activity

Cl.N[C@@H]1[C@@H](O)[C@H](O)[C@@H](CO)O[C@H]1O
12%: [1]
20%: [21] | Danio rerio [32]
28%: [4]
100%: [5]
40%: [6]
16%: [2] | [3]
active: Danio rerio [7] | Danio rerio [8] | Danio rerio [9] | Osteoblast [10] | Osteoblast [11] | Osteoblast [12] | Osteoblast [13] | Danio rerio [14] | Danio rerio [15] | Danio rerio [16] | Danio rerio [17] | Danio rerio [18] | Danio rerio [19] | Danio rerio [20] | Danio rerio [22] | Danio rerio [23] | Danio rerio [24] | Danio rerio [25] | Danio rerio [26] | Danio rerio [27] | Danio rerio [28] | Danio rerio [29] | Danio rerio [30] | Danio rerio [31] | Danio rerio [33] | Danio rerio [34]
